In assay [1] the test system is tubulin. In words: tubulin depolymerization assay. The format is biochemical. The following applies: for IC50: in vitro, read-out: ID₅₀(µM) in tubulin depolymerization assay. An excerpt:
Taxol (1), the Meerwein product (4), the acetyl chloride product (7), and A-Nor-Taxol (10) were also subjected to tubulin depolymerization assays with the results presented in Table XVI below.

The subject of assay [2] is KB cells. In words: KB cell culture assay. In kind it is cell-based. As to conditions: ED₅₀ of less than 4.0 indicates activity; for EC50: Homo sapiens, read-out: ED⁵⁰ (µg/ml) cell culture. Here is the method: Taxol (1), the Meerwein product (4), the acetyl chloride product (7), and A-nor-taxol (10) were tested in KB cell culture assays. […]

≈ marks a conversion by molar mass, not a printed value.

On to `CC(=O)O[C@H]1C(=O)[C@@]2(C)[C@H]([C@H](OC(=O)c3ccccc3)[C@]3(O)C[C@H](OC(=O)[C@H](O)[C@@H](NC(=O)c4ccccc4)c4ccccc4)C(C)=C1C3(C)C)[C@]1(OC(C)=O)CO[C@@H]1C[C@@H]2O` [Taxol (1), taxol], for which the IC50 in assay [1] worked out at 0.3 µM. In addition, the EC50 in assay [2] amounted to 1e-05 µg/mL (≈ 1.17e-05 µM).
As for `C=C(C)C12CC(OC(=O)C(O)C(NC(=O)c3ccccc3)c3ccccc3)C(C)=C1C(OC(C)=O)C(=O)C1(C)C(O)CC3OCC3(OC(C)=O)C1C2OC(=O)c1ccccc1` (stereo not drawn) [A-Nortaxol (10), A-Nortaxol], in assay [1], the IC50 amounted to 0.9 µM. For the same molecule, the “activity in the tubulin depolymerization assay compared with taxol” value in assay [1] (result in words) is “very similar to taxol”. Moreover, the EC50 in assay [2] turned out to be 2 µg/mL (≈ 2.39 µM).
Turning to “acetylated A-Nor-D-seco-taxol [Acetyl Chloride product (7)]”, the “ED⁵⁰ (µg/ml) cell culture” value in assay [2] was 2.5 µg/mL.

The values above are taken from patent publication EP0505047B1, “Rearranged taxol compounds and method of using in testing of in vivo activity” (VIRGINIA TECH INTELLECTUAL PROPERTIES, INC., priority 1991, dated 1992).
